The nature of experiment [1]: DPPH radical scavenging (antioxidant) assay. The following applies: Table 10; mean ± standard deviation; 30 min, 515 nm; read-out: IC50 (μM), DPPH radical scavenging. The class given is biochemical. The procedure: The DPPH radical scavenging activity of ascorbic acid (vitamin C) and the synthetic commercial antioxidant, butylated hydroxytoluene (BHT) are also assayed as positive controls (see Table 10). […] Absorbance is determined after 30 min at 515 nm, and the scavenging capacity (SC) is calculated as SC %=[(A0−A1/A0)]×100, where A0 is the absorbance of the reagent blank and A1 is the absorbance of the test samples. The control contained all reagents except the compounds, and all tests are performed in triplicate.
Absorbance is determined after 30 min at 515 nm, and the scavenging capacity (SC) is calculated as SC %=[(A0−A1/A0)]×100 where A0 is the absorbance of the reagent blank, and A1 is the absorbance with test samples. The control contained all reagents except the compounds and all tests are performed in triplicate.
(In general: The DPPH test is a chemical assay of radical scavenging.)

Experiment [2] relates to Caco-2 (human epithelial colorectal adenocarcinoma). The experiment can be described thus: MTS cytotoxicity / antiproliferative assay. The class given is cell-based. The following applies: Homo sapiens.
Experiment [3] deals with CCD-18Co (normal human colon fibroblasts). Nature of the experiment: MTS cytotoxicity / antiproliferative assay. The following applies: Homo sapiens, CCD-18Co. It counts as cell-based.
The subject of experiment [4] is HCT-116 (human colon carcinoma). Nature of the experiment: MTS cytotoxicity / antiproliferative assay. It counts as cell-based. The conditions noted are these: Homo sapiens.
In experiment [5] the test system is HT-29 (human colon adenocarcinoma). The experiment can be described thus: MTS cytotoxicity / antiproliferative assay. The conditions noted are these: Homo sapiens. It counts as cell-based.
The subject of experiment [6] is CCD-18Co cells. The experiment can be described thus: Flow cytometry analysis of cell cycle. It counts as cell-based, human. The following applies: 48 and 72 h. The procedure: (§1) (2×10^5) are collected after the corresponding experimental periods, fixed in ice-cold ethanol:PBS (70:30, v/v) for 30 min at 4° C., further resuspended in PBS with 100 μg ml^−1 RNAse and 40 μg ml^−1 propidium iodide, and then incubated at 37° C. for 30 min. The DNA content (10,000 cells) is analyzed using a FACS Calibur instrument equipped with FACStation running FACS Calibur software (BD Biosciences, San Diego, Calif., USA). The analyses of cell cycle distribution are performed in triplicate for each treatment (tested at 50 μg/mL concentrations). The coefficient of variation, according to the ModFit LT Version 2 acquisition software package (Verity Software House, Topsham, Me., USA), is always less than 5%.
as §1, with “Cells (2×10^5)” for “(2×10^5)”, “μg/mL” for “μg ml^−1”, “and” for “and then”, “min.” for “min. The”, “analysed” for “analyzed”, “treatment.” for “treatment (tested at 50 μg/mL concentrations).”

For experiment [7], the system named is colon cancer (HCT-116, Caco-2 and HT-29) cell lines. The experiment can be described thus: MTS antiproliferative assay, statements pooled over the colon cancer cell lines.
The mark [8] stands for this setting: Caco-2, 48 h, read-out: Caco-2 48 h(IC50), Table 6 maple compounds, 48 h, unit inferred.
The mark [9] stands for this setting: Caco-2, 72 h, Table 6 maple compounds, 72 h, unit inferred, read-out: Caco-2 72 h(IC50).
Setting [10] is: 72 h, Table 6 maple compounds, 72 h, unit inferred, read-out: CCD-18Co 72 h(IC50).
The mark [11] stands for this setting: HCT-116, 48 h, read-out: HCT-116 48 h(IC50), Table 6 maple compounds, 48 h, unit inferred.
[12] abbreviates: HCT-116, 72 h, Table 6 maple compounds, 72 h, unit inferred, read-out: HCT-116 72 h(IC50).
Setting [13] is: HT-29, 48 h, read-out: HT-29 48 h(IC50), Table 6 maple compounds, 48 h, unit inferred.
Where [14] appears, read: HT-29, 72 h, Table 6 maple compounds, 72 h, unit inferred, read-out: HT-29 72 h(IC50).

The structures appear in SMILES notation. Where two headings read alike, the source gives them in different places.

As a reminder, the IC50 is the concentration that inhibits the measured activity by half.

Turning to `COc1cc2ccc(=O)oc2cc1O` [compound 8, scopoletin], the IC50 in experiment [1] worked out at 655 ± 14.4 µM; in experiment [2] (Caco-2, 48 h, read-out: Antiproliferative activity Caco-2 48 h (IC50), 48 h, pure isolated compounds) it was 89.3 ± 0.9 µM; in experiment [2] (setting [8]) it was 89.3 µM; in experiment [2] (Caco-2, 72 h, 72 h, pure isolated compounds, read-out: Antiproliferative activity Caco-2 72 h (IC50)), 82 ± 2 µM; in experiment [2] (setting [9]), 82 µM; in experiment [3] (setting [10]) it was 103 µM. The IC50 in experiment [3] (72 h, pure isolated compounds, read-out: Antiproliferative activity CCD-8Co 72 h (IC50)) is 103 ± 5.9 µM; in experiment [4] (HCT-116, 48 h, read-out: Antiproliferative activity HCT-116 48 h (IC50), 48 h, pure isolated compounds) it was 68.1 ± 1 µM; in experiment [4] (setting [11]), 68.1 µM; in experiment [4] (HCT-116, 72 h, 72 h, pure isolated compounds, read-out: Antiproliferative activity HCT-116 72 h (IC50)) it was 60.6 ± 2 µM; in experiment [4] (HCT-116, 72 h, 72 h, range given for the group, read-out: IC50 against HCT-116 cells at 72 h (activity ranking)) it was 42 to 67 µM; in experiment [4] (setting [12]), 60.6 µM. Besides, the IC50 was found to be 78.7 ± 1.2 µM in experiment [5] (HT-29, 48 h, read-out: Antiproliferative activity HT-29 48 h (IC50), 48 h, pure isolated compounds); 78.7 µM in experiment [5] (setting [13]); 70 ± 1.3 µM in experiment [5] (HT-29, 72 h, 72 h, pure isolated compounds, read-out: Antiproliferative activity HT-29 72 h (IC50)); 70.2 µM in experiment [5] (setting [14]).

Consider `COc1cc([C@@H]2c3cc4c(cc3[C@@H](O[C@@H]3O[C@@H]5CO[C@@H](C)O[C@H]5[C@H](O)[C@H]3O)[C@H]3COC(=O)[C@H]23)OCO4)cc(OC)c1O` [Etoposide, reference compound], for which the “changes in cell cycle compared with control cells” value in experiment [6] is recorded as “slight but significant changes in the S phase”. Also, the IC50 in experiment [7] (Homo sapiens, read-out: IC50 (HT29, HCT116 and Caco-2), positive control, footnote of Table 16) was 10 to 20 µM; in experiment [7] (Homo sapiens, read-out: IC50 of positive control, MTS, HT-29, HCT116 and Caco-2) it was 15 to 25 µM; in experiment [7] (read-out: IC50 of positive control, MTS, HT-29, HCT116 and Caco-2), 10 to 20 µM; in experiment [2] (Caco-2, 48 h, read-out: Caco-2 48 h (IC50), 48 h), 18.9 µM; in experiment [2] (setting [8]), 14.3 µM; in experiment [2] (Caco-2, 72 h, 72 h, read-out: Caco-2 72 h (IC50)), 16.1 µM. Besides, the IC50 in experiment [2] (setting [9]) was 12.3 µM; in experiment [2] (Caco-2, 72 h, Table 7 maple extracts, 72 h, unit inferred, read-out: Caco-2 72 h(IC50)) it was 16.1 µM; in experiment [3] (48 h, read-out: CCD-18Co 48 h (IC50), 48 h), 48.7 µM; in experiment [3] (48 h, read-out: CCD-18Co 48 h(IC50), Table 6 maple compounds, 48 h, unit inferred), 45.1 µM; in experiment [3] (setting [10]), 42.4 µM; in experiment [3] (72 h, read-out: CCD-18Co 72 h (IC50)), 43.9 µM. In addition, the IC50 in experiment [3] (CCD-18Co cells, read-out: IC50 of positive control, MTS) is 40 to 45 µM; in experiment [3] (positive control, footnote of Table 16, read-out: IC50 for the CCD-18Co cells), 30 to 40 µM; in experiment [4] (HCT-116, 48 h, read-out: HCT-116 48 h (IC50), 48 h) it was 26.9 µM; in experiment [4] (setting [11]), 28.5 µM; in experiment [4] (HCT-116, 72 h, 72 h, read-out: HCT-116 72 h (IC50)), 14.4 µM; in experiment [4] (setting [12]) it was 21.9 µM. Further, the IC50 in experiment [4] (HCT-116, 72 h, Table 7 maple extracts, 72 h, unit inferred, read-out: HCT-116 72 h(IC50)) stood at 14.4 µM; in experiment [5] (HT-29, 48 h, read-out: HT-29 48 h (IC50), 48 h), 13.4 µM; in experiment [5] (setting [13]), 21.2 µM; in experiment [5] (HT-29, 48 h, read-out: HT-29 48 h(IC50), Table 7 maple extracts, 48 h, unit inferred), 13.4 µM; in experiment [5] (HT-29, 72 h, 72 h, read-out: HT-29 72 h (IC50)) it was 7.3 µM; in experiment [5] (setting [14]) it was 12.9 µM. Moreover, the IC50 in experiment [5] (HT-29, 72 h, Table 7 maple extracts, 72 h, unit inferred, read-out: HT-29 72 h(IC50)) was found to be 7.3 µM.

`O=C(OC[C@H]1OC[C@H](OC(=O)c2cc(O)c(O)c(O)c2)[C@@H](O)[C@@H]1O)c1cc(O)c(O)c(O)c1` [compound 70, 2,6-di-O-galloyl-1,5-anhydro-D-glucitol]: the IC50 was 16 to 24 µg/mL in experiment [7] (Homo sapiens, read-out: IC50 range, MTS assay, ginnalins, colon cell lines); 61.6 µM in experiment [2] (setting [8]); 46.5 µM in experiment [2] (setting [9]); 90.6 µM in experiment [3] (setting [10]); 54.6 µM in experiment [4] (setting [11]); 43.4 µM in experiment [4] (setting [12]). For the same compound, the values for the IC50 in experiment [5] (setting [13]) and in experiment [5] (setting [14]) were 77 µM and 51.6 µM, respectively.

Values taken from US20130267474A1, “NOVEL PHYTOCHEMICALS FROM EXTRACTS OF MAPLE SYRUPS AND MAPLE TREES AND USES THEREOF” (UNIVERSITY OF RHODE ISLAND, priority 2010, published 2013).
